Measured values: patent publication US11304926B2, “Application of transient receptor potential cation channel TRPV3 in developing drug for preventing or treating psoriasis” (CHINA PHARMACEUTICAL UNIVERSITY, priority 2019, dated 2022)
“Also recorded” adds a separate entry of the source.

System: mouse psoriasis model induced by 5% IMQ
Test: PASI score of mouse psoriasis model induced by imiquimod under drug intervention
Type: in vivo
Details: for PASI score: n = 8, mean ± SD
Description: 16 C57BL/6 mice, with half male and half female were purchased from the Experimental Animal Center of Nanjing Medical University, wherein weights of the mice ranged from 18 g to 20 g. Back hair of the mice was shaved off, and then the mice were randomly divided into 2 groups (8 mice in each group) according to male and female genders. Before experiment, the mice were placed in a quiet environment kept away from strong light for 3 days to adapt to the environment, a ratio of an illuminating time to a dark time was 1:1, a room temperature was controlled at 25° C., a humidity was 55%, and the mice could eat and drink freely. 62.5 mg of 5% (0.1 g:2 g) imiquimod ointment (Zhuhai United Laboratories Co., Ltd.) was continuously applied to back skins of the mice for 6 days to induce a psoriasis-like lesion, while the same dose of vaseline ointment was given to the control group.
The clinical symptom of the mouse psoriasis model was evaluated by a PASI scoring standard from three indicators of erythema, scale and infiltration thickening. The scores ranged from 0 point to 4 points, and a total score was obtained by adding scores of the three indicators. The PASI scoring standard was as follows: 0 point referred to no symptom; 1 point referred to a mild degree; 2 points referred to a moderate degree; 3 points referred to a severe degree; and 4 points referred to an extremely severe degree. The PASI evaluation was conducted daily before the IMQ ointment was applied.
C57BL/6 mice, with half male and half female were purchased from the Experimental Animal Center of Nanjing Medical University, wherein weights of the mice ranged from 18 g to 20 g. The C57BL/6 mice were randomly divided into 4 groups (8 mice in each group). Mouse psoriasis models were established as described in Embodiment 2 (1). […]
Back skins of the mice were photographed and recorded on the 1st, 3rd and 5th days after modeling.

[1] = subcutaneous injection, 5% IMQ model

For O=c1cc(-c2ccc(O)cc2)oc2cc(O)c(O)c(O)c12 [Scutellarein], which PASI score (day 1, 0.1‰ scutellarein s.c. 100 μL twice a day + imiquimod) is on record?
The PASI score was 0.0 ± 0.0.

And the PASI score (day 1, 0.2‰ scutellarein s.c. 100 μL twice a day + imiquimod)?
The PASI score was 0.0 ± 0.0.

What about the PASI score (day 2, 0.1‰ scutellarein s.c. 100 μL twice a day + imiquimod) of the same compound?
The PASI score was 0.5 ± 0.6.

And the PASI score (day 2, 0.2‰ scutellarein s.c. 100 μL twice a day + imiquimod)?
The PASI score was 0.0 ± 0.0.

And the PASI score (day 3, 0.1‰ scutellarein s.c. 100 μL twice a day + imiquimod)?
Its PASI score is 1.8 ± 0.9.

What about the PASI score (day 3, 0.2‰ scutellarein s.c. 100 μL twice a day + imiquimod) of the same compound?
The PASI score was 0.5 ± 0.6.

What about the PASI score (day 4, 0.1‰ scutellarein s.c. 100 μL twice a day + imiquimod) of the same compound?
Its PASI score is 1.8 ± 1.0.

And the PASI score (day 4, 0.2‰ scutellarein s.c. 100 μL twice a day + imiquimod)?
The PASI score was 0.8 ± 0.9.

What about the PASI score (day 5, 0.1‰ scutellarein s.c. 100 μL twice a day + imiquimod) of the same compound?
Its PASI score is 3.0 ± 0.8.

What about the PASI score (day 5, 0.2‰ scutellarein s.c. 100 μL twice a day + imiquimod) of the same compound?
Its PASI score is 2.0 ± 1.2.

And the “occurrence of the lesion induced by imiquimod” value [1]?
Its value is “delay occurrence of the lesion”.

And the “psoriasis-like lesion on the back skins of the mice (appearance)” value [1]?
The value was “could relieve the psoriasis-like lesion; also recorded: can improve the lesion; also recorded: significantly relieve”.
